The text below walks through data of PubChem BioAssay (NCI).

In one assay the test system is UO-31 renal. The assay is described as follows: NCI-60 cell line screen, 48 h.
The next assay deals with MDA-MB-231 breast. The assay is described as follows: NCI-60 cell line screen, 48 h.

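A five-concentration, 48-hour dose response in 96-well plates underlies each endpoint, interpolated linearly between surrounding concentrations. TGI marks complete inhibition of growth.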

Regarding `Cc1cc(C)n(CN(Cn2nc(C)cc2C)c2ccccc2)n1`, the TGI was 78.5 µM in the assay with UO-31 renal and greater than 100 µM in the assay on MDA-MB-231 breast.

Take `COc1ccc(Nc2nc3ccccc3nc2C(=O)O)cc1OC`: the TGI in the assay with UO-31 renal is 97.8 µM; in the assay with MDA-MB-231 breast, greater than 100 µM.

Regarding `Cc1cc2c(cc1C)C(=O)/C(=N/Nc1ccc(F)cc1)CCO2`, the TGI in the assay with UO-31 renal and in the assay with MDA-MB-231 breast was greater than 100 µM throughout.

In the assay on MDA-MB-231 breast, `O=C(N/N=C(/COc1cccc(Cl)c1)N=Cc1cccnc1)c1ccncc1` had a TGI greater than 100 µM.

On to `COc1ccc(/C=C2/CCS(=O)(=O)c3ccc(C)cc3C2=O)cc1OC`, for which the figures for the TGI with UO-31 renal and with MDA-MB-231 breast were 20.1 µM and 39.1 µM, respectively.

Turning to `CC1OC(O[C@H]2CC[C@]3(C=O)[C@H]4CC[C@]5(C)[C@H](C6=CC(=O)OC6)CC[C@]5(O)[C@@H]4C=C[C@]3(O)C2)CC(O)C1O` (stereo partly specified), the figures for the TGI in the assay with UO-31 renal and with MDA-MB-231 breast were 0.546 µM and 2.57 µM, respectively.

On to `Cc1cc(C)n(C(=O)CSc2nnc(SCC(=O)n3nc(C)cc3C)s2)n1`, for which the TGI in the assay with UO-31 renal and in the assay on MDA-MB-231 breast was greater than 100 µM in each case.

Turning to `O=C1C(Cl)C(c2cc3cc(Br)ccc3nc2Cl)N1c1c(Cl)cccc1Cl` (stereo unspecified), the TGI in the assay on UO-31 renal was 4.5 µM; in the assay on MDA-MB-231 breast, greater than 25 µM.

Regarding `CC1=CC(C)(C)Nc2ccc(CSc3ccccc3)cc21`, the TGI in the assay on UO-31 renal is 50.8 µM; in the assay on MDA-MB-231 breast it was 94.1 µM.

For `CC(=O)OCC(OC(C)=O)C(OC(C)=O)C(OC(C)=O)C(/C=N\Nc1nc2ccccc2c(=O)[nH]1)=N/Nc1nc2ccccc2c(=O)[nH]1` (stereo unspecified), the TGI in the assay on UO-31 renal and with MDA-MB-231 breast was greater than 100 µM each time.

As to `Nc1ccccc1N=Nc1c(S(=O)(=O)O)cc2cc(S(=O)(=O)O)cc(O)c2c1O`, the TGI in the assay on UO-31 renal and with MDA-MB-231 breast was greater than 100 µM each time.

In the assay with UO-31 renal, `COc1ccc(CNC(=O)[C@H](Cc2ccc(O)cn2)NC(C)=O)cc1` returned a TGI greater than 100 µM.

Turning to `Cc1ccc(-c2cc(-c3c(C)nn(C)c(=O)c3N)[nH]n2)cc1`, in the assay with MDA-MB-231 breast, the TGI was greater than 100 µM.

As to `COc1cccc2cc(C(=O)Nc3ccccn3)c(=N)oc12`, the TGI in the assay with UO-31 renal and with MDA-MB-231 breast was greater than 100 µM throughout.

Turning to `CN1C(=O)C23CCCCC2CC1(c1ccccc1)S3` (stereo unspecified), the TGI with UO-31 renal and with MDA-MB-231 breast was greater than 100 µM each time.

With `COc1ccc(N2C(=O)/C(=C\c3cccc(Oc4ccccc4)c3)SC2c2ccccc2)cc1` (stereo unspecified), the TGI with UO-31 renal and with MDA-MB-231 breast was greater than 100 µM in each case.

Consider `CN(C)CCCNC(=O)c1cc(NC(=O)c2cc(NC(=O)[C@@H]3C[C@H]3C(=O)Nc3cc(C(=O)Nc4cc(C(=O)NCCCN(C)C)n(C)c4)n(C)c3)cn2C)cn1C`, for which the TGI in the assay with MDA-MB-231 breast was greater than 100 µM.

On to `C[N+](C)([O-])Cc1cc(-c2ccccc2)ccc1O`, for which the TGI in the assay on UO-31 renal and in the assay with MDA-MB-231 breast was greater than 100 µM each time.

Turning to `CC[C@@H](/C=C\CCC1(C[C@@H](N)CCC=C(C)C)OCCO1)O[Si](C(C)C)(C(C)C)C(C)C`, the TGI is 32.3 µM in the assay with UO-31 renal and 33.6 µM in the assay with MDA-MB-231 breast.

Molecule `CCOC(=O)NC(=S)c1ccc(O)c2ccccc12` had a TGI in the assay on UO-31 renal greater than 100 µM.

As for `CCC(=O)NCCc1c2c3c(ccnc3c3ncsc13)-c1ccccc1N2`, the TGI is greater than 100 µM in the assay on UO-31 renal and greater than 68.4 µM in the assay on MDA-MB-231 breast.

With `NC(=O)C(Nc1ccc(Cl)cc1)c1cc2cc(Br)ccc2nc1Cl` (stereo unspecified), the TGI in the assay with UO-31 renal and in the assay with MDA-MB-231 breast was greater than 50 µM each time.

Consider `Oc1cc(CN2COc3ccccc32)c(O)cc1CNC1CCCCC1`, for which the TGI in the assay with UO-31 renal is greater than 100 µM; with MDA-MB-231 breast it was 41.8 µM.

Take `COc1ccc2c(CCNS(=O)(=O)c3ccccc3)c(C(C)=O)[nH]c2c1`: the TGI with UO-31 renal and in the assay with MDA-MB-231 breast was greater than 100 µM in each case.

Regarding `O=C(NNC(=S)NCc1ccccc1)C12CC3CC(CC(C3)C1)C2`, the TGI with UO-31 renal and in the assay with MDA-MB-231 breast was greater than 100 µM throughout.

For `Cc1c(-c2ccccc2)c(C#N)c2nnn(-c3cccc(Cl)c3)c(=O)n12`, in the assay on MDA-MB-231 breast, the TGI amounted to 72.9 µM.

For the molecule `O=C1/C(=C/c2cccs2)NC(=S)N1CN1CCCC(CO)C1` (stereo unspecified), the TGI in the assay with UO-31 renal and in the assay on MDA-MB-231 breast was greater than 100 µM in each case.

Turning to `O=C(Nc1nc(C23CC4CC(CC(C4)C2)C3)cs1)c1cc2c(ccc3ccccc32)oc1=O`, the TGI with UO-31 renal and in the assay on MDA-MB-231 breast was greater than 100 µM each time.

As for `O=C(CCOS(=O)(=O)CF)N1CCN(C(=O)CCOS(=O)(=O)CF)CC1`, the TGI in the assay with UO-31 renal and in the assay with MDA-MB-231 breast was greater than 100 µM throughout.

Turning to `CN(C)C(=O)C1CCN(Cc2c[nH]c3ccccc23)CC1`, the TGI in the assay on UO-31 renal and in the assay on MDA-MB-231 breast was greater than 100 µM in each case.

Turning to `CCN(CC)COC(=S)S`, the TGI in the assay on UO-31 renal and in the assay on MDA-MB-231 breast was greater than 100 µM throughout.

Regarding `CCN(CC)C(=S)SS(=O)(=O)c1ccccc1[N+](=O)[O-]`, the TGI in the assay on UO-31 renal is 31.2 µM; in the assay on MDA-MB-231 breast it was 37.3 µM.

Molecule `CCOC(=O)N1[C@@H]2CCC[C@@H]2C(=O)[C@@H]2CCC[C@@H]21` came in with a TGI with MDA-MB-231 breast greater than 100 µM.

On to `Cn1c2c3c(F)c(F)ccc3nc-2cc2ccccc21`, for which the results for the TGI with UO-31 renal and with MDA-MB-231 breast were 7.52 µM and 20.8 µM, respectively.

As to `Oc1ccc(-c2cn3cc(C(F)(F)F)ccc3n2)cc1`, the TGI with UO-31 renal and with MDA-MB-231 breast was greater than 100 µM in each case.

Take `CC1(C)CN=C(Nc2ccc(F)c(F)c2)S1`: the TGI with UO-31 renal and in the assay on MDA-MB-231 breast was greater than 100 µM each time.

For `CN(C)Cc1cc(N=Nc2ccc(Cl)cc2)ccc1O`, the TGI was 24.5 µM in the assay on UO-31 renal and 32.2 µM in the assay with MDA-MB-231 breast.

Turning to `Cc1ccc(C)n1-n1c(-c2ccccc2)n[nH]c1=O`, the TGI in the assay on UO-31 renal and in the assay with MDA-MB-231 breast was greater than 100 µM each time.

`COC(=O)C1C(C(=O)OC)C1(Br)CBr` (stereo unspecified): the TGI in the assay on UO-31 renal is 34.9 µM; in the assay with MDA-MB-231 breast, greater than 100 µM.
